Like-named read-outs stand apart in the source and are kept apart here.
Key:
GST-MCL-1 = GST-MCL-1 (Homo sapiens, UniProt Q07820); assay: TR-FRET MCL-1 binding assay (competition with probe F-Bak)
Outline: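 Displacement of F-Bak from GST-MCL-1 is detected by time-resolved FRET with a Tb-labelled anti-GST antibody, with excitation 340/35 nm and emission 520/525 and 495/510 nm, after 2 hours at room temperature. Compounds were titrated in 11 three-fold steps starting at 25 μM final, in buffer alone or in 10% HS.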

[1] = system: AMO-1 human multiple myeloma tumor cell line; assay: AMO-1 cell viability assay (CellTiter-Glo, 24 hours); type: cell-based
[2] = system: NCI-H929 human multiple myeloma tumor cell line; assay: NCI-H929 cell viability assay (CellTiter-Glo, 24 hours); type: cell-based
[3] = MCL-1 Binding Ki (nM, 10% HS), in the presence of 10% HS (human serum)
[4] = without HS, read-out: MCL-1 Binding Ki
[5] = Homo sapiens, AMO1, 24 h, read-out: AMO-1 Viability IC50 (μM, 10% FBS), 10% FBS, 24 hours of compound treatment
[6] = Homo sapiens, NCI-H929, 24 h, read-out: H929 Viability IC50 (μM, 10% FBS), 10% FBS, 24 hours of compound treatment
[7] = read-out: AMO-1 Viability IC50 (μM, 10% FBS), 10% FBS, 24 hours of compound treatment
[8] = read-out: H929 Viability IC50 (μM, 10% FBS), 10% FBS, 24 hours of compound treatment

Chain of GST-MCL-1 (Q07820 whole entry): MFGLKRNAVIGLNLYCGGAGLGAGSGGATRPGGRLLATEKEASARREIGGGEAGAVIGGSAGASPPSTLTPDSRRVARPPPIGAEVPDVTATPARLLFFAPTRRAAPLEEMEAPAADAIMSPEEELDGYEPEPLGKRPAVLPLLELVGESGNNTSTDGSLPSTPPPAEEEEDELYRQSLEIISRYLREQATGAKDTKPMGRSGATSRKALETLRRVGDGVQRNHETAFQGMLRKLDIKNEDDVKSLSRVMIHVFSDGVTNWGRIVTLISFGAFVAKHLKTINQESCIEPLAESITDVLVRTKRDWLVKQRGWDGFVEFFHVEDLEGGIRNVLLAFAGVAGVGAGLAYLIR

Compound	Ki (GST-MCL-1; [3]) [nM]	Ki (GST-MCL-1; [4]) [nM]	IC50 [1, 5] [µM]	IC50 [2, 6] [µM]	IC50 [1, 7] [µM]	IC50 [2, 8] [µM]
Cc1c(Cl)c2c(Cl)c(C)c1-c1c(-c3ccc(F)cc3)sc3ncnc(c13)O[C@@H](C(=O)O)Cc1cc(ccc1OCc1ccnc(-c3ccc(CCC(=O)O)cc3)n1)OC[C@@H](CN1CCN(C)CC1)O2 [Example 20, (7R,16R)-10-({2-[4-(2-carboxyethyl)phenyl]pyrimidin-4-yl}methoxy)-19,23-dichloro-1-(4-fluorophenyl)-20,22-dimethyl-16-[(4-methylpiperazin-1-yl)methyl]-7,8,15,16-tetrahydro-18,21-etheno-13,9-(metheno)-6,14,17-trioxa-2-thia-3,5-diazacyclononadeca[1,2,3-cd]indene-7-carboxylic Acid]	0.165	0.007	0.00425	0.00804	–	–
Cc1c2ccc(c1Cl)O[C@H](CN1CCN(C)CC1)COc1ccc(OCc3ccnc([C@H]4CCCN4C(=O)CCP(C)(C)=O)n3)c(c1)C[C@H](C(=O)O)Oc1ncnc3sc(-c4ccc(F)cc4)c-2c13 [Example 55, (7R,16R)-19-chloro-10-[(2-{(2R)-1-[3-(dimethylphosphoryl)propanoyl]pyrrolidin-2-yl}pyrimidin-4-yl)methoxy]-1-(4-fluorophenyl)-20-methyl-16-[(4-methylpiperazin-1-yl)methyl]-7,8,15,16-tetrahydro-18,21-etheno-13,9-(metheno)-6,14,17-trioxa-2-thia-3,5-diazacyclononadeca[1,2,3-cd]indene-7-carboxylic Acid]	92.6	38.2	> 1	> 1	–	–
COCCOCCOCCOCCOCCOCC1(C)CC=C(c2nccc(COc3ccc4cc3C[C@H](C(=O)O)Oc3ncnc5sc(-c6ccc(F)cc6)c(c35)-c3c(C)c(Cl)c(c(Cl)c3C)O[C@H](CN3CCN(C)CC3)CO4)n2)CC1 (single isomer, unassigned) [Example 85, (7R,16R)-19,23-dichloro-1-(4-fluorophenyl)-10-({2-[(4S*)-4-(2,5,8,11,14,17-hexaoxaoctadecan-1-yl)-4-methylcyclohex-1-en-1-yl]pyrimidin-4-yl}methoxy)-20,22-dimethyl-16-[(4-methylpiperazin-1-yl)methyl]-7,8,15,16-tetrahydro-18,21-etheno-13,9-(metheno)-6,14,17-trioxa-2-thia-3,5-diazacyclononadeca[1,2,3-cd]indene-7-carboxylic Acid]	0.191	0.029	–	–	0.000198	0.000485
COCCOCCOCCC1CCN(C[C@@H]2COc3ccc(OCc4ccnc(-c5ccccc5OC)n4)c(c3)C[C@H](C(=O)O)Oc3ncnc4sc(-c5ccc(F)cc5)c(c34)-c3ccc(c(Cl)c3C)O2)CC1 (atropisomer, axis not shown) [Example 27, (7R,16R,21R)-19-chloro-1-(4-fluorophenyl)-16-[(4-{2-[2-(2-methoxyethoxy)ethoxy]ethyl}piperidin-1-yl)methyl]-10-{[2-(2-methoxyphenyl)pyrimidin-4-yl]methoxy}-20-methyl-7,8,15,16-tetrahydro-18,21-etheno-13,9-(metheno)-6,14,17-trioxa-2-thia-3,5-diazacyclononadeca[1,2,3-cd]indene-7-carboxylic Acid]	22	0.987	–	–	0.314	0.319
Cc1c(Cl)c2c(Cl)c(C)c1-c1c(-c3ccc(F)cc3)sc3ncnc(c13)O[C@@H](C(=O)O)Cc1cc(ccc1OCc1ccnc(-c3ccc(OCCN4C[C@H]5COC[C@H]5C4)cc3)n1)OC[C@@H](CN1CCN(C)CC1)O2 [Example 164, (7R,16R)-19,23-dichloro-1-(4-fluorophenyl)-20,22-dimethyl-16-[(4-methylpiperazin-1-yl)methyl]-10-{[2-(4-{2-[(3aR,6aS)-tetrahydro-1H-furo[3,4-c]pyrrol-5 (3H)-yl]ethoxy}phenyl)pyrimidin-4-yl]methoxy}-7,8,15,16-tetrahydro-18,21-etheno-13,9-(metheno)-6,14,17-trioxa-2-thia-3,5-diazacyclononadeca[1,2,3-cd]indene-7-carboxylic Acid]	0.453	0.061	0.000416	0.00147	–	–
Cc1c(Cl)c2c(Cl)c(C)c1-c1c(-c3ccc(F)cc3)sc3ncnc(c13)O[C@@H](C(=O)O)Cc1cc(ccc1OCc1ccnc(N3CC4(COC4)C3)n1)OC[C@@H](CN1CCN(C)CC1)O2 [Example 42, (7R,16R)-19,23-dichloro-1-(4-fluorophenyl)-20,22-dimethyl-16-[(4-methylpiperazin-1-yl)methyl]-10-{[2-(2-oxa-6-azaspiro[3.3]heptan-6-yl)pyrimidin-4-yl]methoxy}-7,8,15,16-tetrahydro-18,21-etheno-9,13-(metheno)-6,14,17-trioxa-2-thia-3,5-diazacyclononadeca[1,2,3-cd]indene-7-carboxylic Acid]	0.747	0.085	0.0011	0.00314	–	–
COCCOCCOCCOCCOCCOCCO[C@H]1CC[C@H](c2nccc(COc3ccc4cc3C[C@H](C(=O)O)Oc3ncnc5sc(-c6ccc(F)cc6)c(c35)-c3c(C)c(Cl)c(c(Cl)c3C)O[C@H](CN3CCN(C)CC3)CO4)n2)CC1 [Example 67, (7R,16R)-19,23-dichloro-1-(4-fluorophenyl)-10-[(2-{(1r,4r)-4-[(2,5,8,11,14,17-hexaoxanonadecan-19-yl)oxy]cyclohexyl}pyrimidin-4-yl)methoxy]-20,22-dimethyl-16-[(4-methylpiperazin-1-yl)methyl]-7,8,15,16-tetrahydro-18,21-etheno-13,9-(metheno)-6,14,17-trioxa-2-thia-3,5-diazacyclononadeca[1,2,3-cd]indene-7-carboxylic Acid]	0.073	0.016	0.0011	0.00176	–	–
Cc1c(Cl)c2c(Cl)c(C)c1-c1c(-c3ccc(F)cc3)sc3ncnc(c13)O[C@@H](C(=O)O)Cc1cc(ccc1OCc1ccnc(N3CC4(C3)CC(F)(F)C4)n1)OC[C@@H](CN1CCN(C)CC1)O2 [Example 48, (7R,16R)-19,23-dichloro-10-{[2-(6,6-difluoro-2-azaspiro[3.3]heptan-2-yl)pyrimidin-4-yl]methoxy}-1-(4-fluorophenyl)-20,22-dimethyl-16-[(4-methylpiperazin-1-yl)methyl]-7,8,15,16-tetrahydro-18,21-etheno-9,13-(metheno)-6,14,17-trioxa-2-thia-3,5-diazacyclononadeca[1,2,3-cd]indene-7-carboxylic Acid]	5.32	0.644	0.00275	0.00798	–	–
Cc1c(Cl)c2c(Cl)c(C)c1-c1c(-c3ccc(F)cc3)sc3ncnc(c13)O[C@@H](C(=O)O)Cc1cc(ccc1OCc1ccnc([C@@]3(O)CCCC[C@@H]3O)n1)OC[C@@H](CN1CCN(C)CC1)O2 [Example 38, (7R,16R)-19,23-dichloro-10-({2-[(1S,2S)-1,2-dihydroxycyclohexyl]pyrimidin-4-yl}methoxy)-1-(4-fluorophenyl)-20,22-dimethyl-16-[(4-methylpiperazin-1-yl)methyl]-7,8,15,16-tetrahydro-18,21-etheno-9,13-(metheno)-6,14,17-trioxa-2-thia-3,5-diazacyclononadeca[1,2,3-cd]indene-7-carboxylic Acid]	0.416	0.106	0.00236	0.00577	–	–
COCCOCCOCCC1CCN(C[C@@H]2COc3ccc(OCc4ccnc(-c5ccccc5OC)n4)c(c3)C[C@H](C(=O)O)Oc3ncnc4sc(-c5ccc(F)cc5)c(c34)-c3ccc(c(Cl)c3C)O2)CC1 (atropisomer, axis not shown) [Example 21, (7R,16R,21S)-19-chloro-1-(4-fluorophenyl)-16-[(4-{2-[2-(2-methoxyethoxy)ethoxy]ethyl}piperidin-1-yl)methyl]-10-{[2-(2-methoxyphenyl)pyrimidin-4-yl]methoxy}-20-methyl-7,8,15,16-tetrahydro-18,21-etheno-13,9-(metheno)-6,14,17-trioxa-2-thia-3,5-diazacyclononadeca[1,2,3-cd]indene-7-carboxylic Acid]	0.556	0.059	–	–	0.0143	0.0102
COCCOCCOCCN(CCOCCOCCOC)c1nccc(COc2ccc3cc2C[C@H](C(=O)O)Oc2ncnc4sc(-c5ccc(F)cc5)c(c24)-c2c(C)c(Cl)c(c(Cl)c2C)O[C@H](CN2CCN(C)CC2)CO3)n1 [Example 93, (7R,16R)-10-{[2-(bis{2-[2-(2-methoxyethoxy)ethoxy]ethyl}amino)pyrimidin-4-yl]methoxy}-19,23-dichloro-1-(4-fluorophenyl)-20,22-dimethyl-16-[(4-methylpiperazin-1-yl)methyl]-7,8,15,16-tetrahydro-18,21-etheno-13,9-(metheno)-6,14,17-trioxa-2-thia-3,5-diazacyclononadeca[1,2,3-cd]indene-7-carboxylic Acid]	4.34	0.748	0.00553	0.00424	–	–
COCCOCCOCCO[C@H]1CC[C@H](c2nccc(COc3ccc4cc3C[C@H](C(=O)O)Oc3ncnc5sc(-c6ccc(F)cc6)c(c35)-c3c(C)c(Cl)c(c(Cl)c3C)O[C@H](CN3CCN(C)CC3)CO4)n2)CC1 [Example 57, (7R,16R)-19,23-dichloro-1-(4-fluorophenyl)-10-({2-[(1r,4r)-4-{2-[2-(2-methoxyethoxy)ethoxy]ethoxy}cyclohexyl]pyrimidin-4-yl}methoxy)-20,22-dimethyl-16-[(4-methylpiperazin-1-yl)methyl]-7,8,15,16-tetrahydro-18,21-etheno-13,9-(metheno)-6,14,17-trioxa-2-thia-3,5-diazacyclononadeca[1,2,3-cd]indene-7-carboxylic Acid]	0.072	0.013	0.000244	0.00037	–	–

Source: patent US20250313572A1, “MACROCYCLIC MCL-1 INHIBITORS AND METHODS OF USE” (AbbVie Inc., priority 2017, published 2025)
